In patent US20260102413A1, “TREATING PAIN ASSOCIATED WITH CENTRAL SENSITIZATION” (Medicon Pharmaceuticals, Inc., priority 2022, published 2026):

Key:
[1] = test system: mice with NTG-induced chronic migraine; assay: von Frey PWT, NTG-induced chronic migraine model; type: in vivo, mouse
Text: The NTG-induced chronic migraine model was used as described previously.

[2] = test system: BALB/c mice infected with HSV-1 KOS strain (PHN); type: in vivo, mouse; details: second experiment; sulindac 5% gel on both hind paws 3x/day for three days
Method: PHN was induced in mice by infecting them with the HSV-1 KOS strain virus and following established protocols (Ou et al, Front Immunol, 14, 1026269, 2023; Takasaki et al, Anesthesiology, 96 (5), 1168-74, 2002).
; Reckitt Benckiser). Three days later, HSV-1 (10^6 PFUs in 20 μl PBS) was inoculated on the shin of the right hind paw (5×5 mm) after scarification with sandpaper. The virus was applied directly to the scarified area. The contralateral hind paw was without inoculation. Mock infection was performed using the same virus inactivated by heating at 60° C. for 1 h.
In a second experiment, the effect of the parent compound, sulindac, was tested in the same mouse model. Five days post-inoculation, sulindac (as a 5% gel), or vehicle control were administered topically onto both hind paws of mice three times a day for three days.
PHN was induced in mice by infecting them with the HSV-1 KOS strain virus in line with the previous Examples.
Five days post-inoculation, NO-sulindac (Formula XLIV) (as a 5% gel), or vehicle control were administered topically onto both hind paws of mice three times a day for three days.

STZ-diabetic rats = type: in vivo, rat; details: PS 8% hydrogel, sulindac 0.7% hydrogel 3x/day day −2 to 28; lidocaine cream 5% once 30 min before; STZ day 0; day 28
Text: The animal model corresponds to that used for Example 4, but using a prevention protocol. As in Example 4, the outcome measure, determining the effect of the treatment on the prevention of mechanical allodynia, was the PWT test, using von Frey filaments. The measurements were taken at day −3, before treatment or induction of neuropathic pain associated with DPN, and again at the end of the study period (day 28).
The rats were randomised into treatment groups as follows, all having an average body weight of about 225 g. • 1. Group 1: naïve rats (n=6) • 2. Group 2: STZ only (n=8) • 3. Group 3: STZ plus vehicle (n=8) • 4. […] Group 5: STZ plus sulindac 0.7% (n=8) • 6. Group 6: STZ plus lidocaine cream 5% (n=8)
Each treatment group was subjected to a PWT assessment at day −3 in order to determine the baseline of mechanical allodynia.
For those rats in the lidocaine treatment group, lidocaine cream was applied only once to both hind paws of the rats 30 min before the final PWT measurement on day 28. On day 0, neuropathic pain associated with DPN was induced with the administration of STZ, and the blood glucose was checked on day 3.

CC1=C(CC(=O)O)c2cc(F)ccc2/C1=C\c1ccc([S+](C)[O-])cc1 (stereo not shown) [sulindac, reference compound]
PWT, g Mean ± SEM, Day 11 ([1]; NTG 0.4 mg sublingual every two days x5, oral once a day 11 days: PS 50, sulindac 33 mg/kg, 30 min after administration): 0.43 ± 0.03 g | PWT, g Mean ± SEM, Baseline ([1]; group baseline prior to NTG administration): 1.80 ± 0.12 g | PWT, g Mean ± SEM, Post-inoculation and treatment [2]: 0.56 ± 0.06 g | von Frey, gm mean ± SEM (STZ-diabetic rats): 27.7 ± 1.4 gm
